We go through two molecules from ChEMBL document CHEMBL6153155, “Novel Cyclohexyl Amido Acid Antagonists of Lysophosphatidic Acid Type 1 Receptor for the Treatment of Pulmonary Fibrosis” (ACS Med Chem Lett, 2025).

Data set [1] addresses Lysophosphatidic acid receptor 1 (Mus musculus, UniProt P61793). Briefly: Antagonist activity at mouse LPA1 transfected in human HeLa cells incubated for 30 mins by FLIPR-based calcium mobilization assay. The format is cell-based.
Data set [2] is described as follows: Volume of distribution at steady state in female C57BL/6J mouse at 2 mg/kg, iv measured after 24 hrs by UPLC-MS/MS analysis. To be noted: in vivo, read-out: Vdss. Type of data set: ADME, organism-based.
Data set [3] in a line: Tlast in female C57BL/6J mouse lung at 30 mg/kg, po measured after 24 hrs by UPLC-MS/MS analysis. Type of data set: ADME, organism-based. To be noted: in vivo.
Data set [4] in a line: Half life in female C57BL/6J mouse at 2 mg/kg, iv measured after 24 hrs by UPLC-MS/MS analysis. Type of data set: ADME, organism-based. Particulars: in vivo; call rule not given here.
Data set [5] can be described thus: Unbound AUClast in female C57BL/6J mouse lung at 30 mg/kg, po measured after 24 hrs by UPLC-MS/MS analysis. Type of data set: ADME, organism-based. Particulars: in vivo.
The nature of data set [6]: Lipophilicity, logD of compound at pH 7.4 by chromatographic hydrophobicity index method. Type of data set: physicochemical. Particulars: buffer.
A short description of data set [7]: Total AUClast in female C57BL/6J mouse lung at 30 mg/kg, po measured after 24 hrs by UPLC-MS/MS analysis. Type of data set: ADME, organism-based. Particulars: in vivo.
Data set [8] is described as follows: Metabolic stability in human liver microsomes assessed as intrinsic clearance measured per mg of protein at 0.5 uM measured upto 45 mins in presence of NADPH regenerating system by HPLC-MS/MS analysis. Particulars: read-out: CLH. The format is ADME, Microsome.
Data set [9] in a line: Total Cmax in female C57BL/6J mouse plasma at 30 mg/kg, po measured after 24 hrs by UPLC-MS/MS analysis. Type of data set: ADME, organism-based.
Data set [10] deals with Lysophosphatidic acid receptor 1 (Homo sapiens, UniProt Q92633). Briefly: Antagonist activity at human LPA1 expressed in CHO cells incubated for 30 mins by FLIPR-based calcium mobilization assay.
The nature of data set [11]: Aqueous solubility of the compound at pH 7.4. The format is physicochemical. To be noted: buffer.
The nature of data set [12]: Unbound Cmax in female C57BL/6J mouse lung at 30 mg/kg, po measured after 24 hrs by UPLC-MS/MS analysis. Type of data set: ADME, organism-based. Particulars: in vivo.
A short description of data set [13]: Unbound AUClast in female C57BL/6J mouse plasma at 30 mg/kg, po measured after 24 hrs by UPLC-MS/MS analysis. Type of data set: ADME, organism-based. Particulars: in vivo.
The nature of data set [14]: Tlast in female C57BL/6J mouse plasma at 30 mg/kg, po measured after 24 hrs by UPLC-MS/MS analysis. Type of data set: ADME, organism-based. To be noted: in vivo.
The nature of data set [15]: Total AUClast in female C57BL/6J mouse plasma at 30 mg/kg, po measured after 24 hrs by UPLC-MS/MS analysis. To be noted: in vivo. The format is ADME, organism-based.
Data set [16] in a line: Unbound Cmax in female C57BL/6J mouse plasma at 30 mg/kg, po measured after 24 hrs by UPLC-MS/MS analysis. Type of data set: ADME, organism-based. Particulars: in vivo.
Data set [17] can be described thus: Total Cmax in female C57BL/6J mouse lung at 30 mg/kg, po measured after 24 hrs by UPLC-MS/MS analysis. The format is ADME, organism-based.
Another data set addresses Bile salt export pump (Homo sapiens, UniProt O95342). Briefly: Inhibition of BSEP in cryopreserved sandwich-cultured human hepatocytes by measuring reduction in TCA biliary clearance using taurocholic acid as substrate. The format is cell-based, Hepatocyte.
Data set [18] in a line: Clearance in female C57BL/6J mouse at 2 mg/kg, iv measured after 24 hrs by UPLC-MS/MS analysis. Type of data set: ADME, organism-based. To be noted: in vivo.
Data set [19] in a line: Antiproliferative activity against LPA treated human HLF cells preincubated for 1 hr followed by LPA stimulation and measured after 24 hrs by BrdU assay. To be noted: read-out: pIC50 (converted).
A short description of data set [20]: Oral bioavailability in female C57BL/6J mouse at 2 mg/kg, iv measured after 24 hrs by UPLC-MS/MS analysis. The format is ADME, organism-based. To be noted: in vivo.
The test system of another data set is Mus musculus. Briefly: Inhibition of LPA-stimulated histamine release in male CD1 mouse plasma assessed as effective dose administered as po dose pretreated for 30 mins followed by LPA addition measured after 2 mins by enzyme immunoassay. The format is functional. Particulars: 32 min.
A short description of data set [21]: Metabolic stability in female C57BL/6J mouse liver microsomes assessed as intrinsic clearance measured per mg of protein at 0.5 uM measured upto 45 mins in presence of NADPH regenerating system by HPLC-MS/MS analysis. The format is ADME, Microsome. Particulars: read-out: CLH.
A further data set addresses BSEP (Homo sapiens, UniProt O95342). The experiment in a line: Inhibition of BSEP in cryopreserved sandwich-cultured human hepatocytes by measuring reduction in TCA biliary clearance using taurocholic acid as substrate at 50 uM relative to control. Type of data set: cell-based, Hepatocyte. To be noted: cryopreserved sandwich-cultured hepatocytes, probe taurocholic acid.

The nature of data set [22]: Drug uptake in mouse lung at 30 mg/kg, po measured upto 24 hrs. Particulars: in vivo. The format is ADME, organism-based.

Molecules are shown by their SMILES. ≈ marks a conversion by molar mass, not a printed value. Bounds are passed on as bounds.

Chain of BSEP (O95342 whole entry): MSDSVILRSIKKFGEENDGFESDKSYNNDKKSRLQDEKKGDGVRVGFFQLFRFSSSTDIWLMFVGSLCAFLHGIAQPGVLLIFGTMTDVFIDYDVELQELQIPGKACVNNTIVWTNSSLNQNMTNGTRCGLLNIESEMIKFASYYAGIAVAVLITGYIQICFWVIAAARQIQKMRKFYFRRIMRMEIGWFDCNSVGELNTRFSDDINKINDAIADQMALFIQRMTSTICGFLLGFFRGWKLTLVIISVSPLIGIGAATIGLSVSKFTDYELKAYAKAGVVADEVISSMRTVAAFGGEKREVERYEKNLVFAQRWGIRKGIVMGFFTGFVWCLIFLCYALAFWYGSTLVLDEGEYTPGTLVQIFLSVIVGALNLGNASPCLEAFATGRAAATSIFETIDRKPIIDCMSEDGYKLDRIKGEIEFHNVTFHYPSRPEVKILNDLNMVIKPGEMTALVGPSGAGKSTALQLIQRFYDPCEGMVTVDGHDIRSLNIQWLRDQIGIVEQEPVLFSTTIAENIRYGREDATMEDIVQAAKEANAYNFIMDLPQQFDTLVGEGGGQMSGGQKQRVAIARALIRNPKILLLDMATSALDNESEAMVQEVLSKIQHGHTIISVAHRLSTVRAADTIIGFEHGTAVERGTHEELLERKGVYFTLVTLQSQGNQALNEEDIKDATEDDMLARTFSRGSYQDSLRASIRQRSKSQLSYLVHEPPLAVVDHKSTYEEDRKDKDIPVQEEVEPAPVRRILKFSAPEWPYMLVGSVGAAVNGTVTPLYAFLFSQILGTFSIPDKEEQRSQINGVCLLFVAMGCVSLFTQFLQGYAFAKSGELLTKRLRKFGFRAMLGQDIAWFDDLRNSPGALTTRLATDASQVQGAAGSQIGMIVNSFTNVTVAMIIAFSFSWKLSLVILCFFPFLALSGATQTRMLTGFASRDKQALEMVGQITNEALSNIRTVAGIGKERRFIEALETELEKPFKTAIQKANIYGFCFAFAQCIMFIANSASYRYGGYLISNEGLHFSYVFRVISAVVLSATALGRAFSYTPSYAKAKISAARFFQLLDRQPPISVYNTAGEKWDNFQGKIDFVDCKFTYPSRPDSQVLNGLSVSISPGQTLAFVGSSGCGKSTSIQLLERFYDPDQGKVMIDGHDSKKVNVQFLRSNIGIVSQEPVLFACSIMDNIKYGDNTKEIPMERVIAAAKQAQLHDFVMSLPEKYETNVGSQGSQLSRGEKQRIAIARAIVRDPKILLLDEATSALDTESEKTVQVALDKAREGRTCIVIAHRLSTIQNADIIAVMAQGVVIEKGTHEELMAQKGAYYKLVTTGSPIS
Chain of Bile salt export pump (O95342 whole entry): as above
Chain of Lysophosphatidic acid receptor 1 (Mus musculus, UniProt P61793) (P61793 whole entry): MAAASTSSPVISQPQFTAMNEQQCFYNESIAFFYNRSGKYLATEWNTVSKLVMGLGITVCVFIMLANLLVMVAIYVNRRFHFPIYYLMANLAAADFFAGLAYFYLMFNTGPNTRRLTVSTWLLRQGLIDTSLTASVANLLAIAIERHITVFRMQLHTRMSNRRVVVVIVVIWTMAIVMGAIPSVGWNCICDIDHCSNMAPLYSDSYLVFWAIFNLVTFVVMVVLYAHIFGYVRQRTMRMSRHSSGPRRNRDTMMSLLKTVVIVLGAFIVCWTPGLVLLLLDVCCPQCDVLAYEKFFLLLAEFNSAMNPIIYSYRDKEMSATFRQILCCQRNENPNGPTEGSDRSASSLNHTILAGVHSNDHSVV
Chain of Lysophosphatidic acid receptor 1 (Homo sapiens, UniProt Q92633) (Q92633 whole entry): as the sequence (P61793 whole entry) above, with A4I, S8I, Q22P, Y40H, V61I, D193E, H194N, V269I, N331S, N335T counted along it

Consider `Cc1nc(-c2nnn(C)c2NC(=O)O[C@H](C)c2ccccc2Cl)ccc1NC(=O)[C@H]1CCCC[C@@H]1C(=O)O`, for which the IC50 in data set [1] was 0.0158 µM; in [10], 0.0316 µM; on Bile salt export pump, above 100 µM; in [19] it was 0.0372 µM. Also, in [2], the Vd came out at 2.1 L/kg. The Tlast in [3] came out at 24 h; in data set [14], 8 h. The half-life in data set [4] was 4.19 h. In addition, the fAUClast in data set [5] stood at 257 h/ng/mL; in data set [13], 430 h/ng/mL. Also, the chromatographic logD in data set [6] was found to be 1.18. For the same molecule, the results for the AUClast in [7] and in [15] were 4040 h/ng/mL and 6720 h/ng/mL, respectively. The microsomal CLint at 0.5 µM worked out at 0.4 µL/min/mg in [8] and 2.7 µL/min/mg in data set [21]. Moreover, the results for the Cmax in data set [9] and in data set [17] were 3.93 µg/mL and 2.62 µg/mL, respectively. In data set [11], this molecule came in with a solubility of 318 µM (≈ 172 µg/mL). Moreover, the figures for the fCmax in [12] and in data set [16] were 167 ng/mL and 251 ng/mL, respectively. Also, the clearance in data set [18] is 1.03 L/h/kg. Moreover, in [20], the bioavailability is 22%. Further, in the data set on Mus musculus, the ED50 turned out to be 0.1 mg/kg. Further, the inhibition at 50 µM at BSEP came to 16%.
In the case of `Cc1nc(-c2onc(C)c2NC(=O)O[C@H](C)c2ccccc2)ccc1NC(=O)[C@H]1CCCC[C@@H]1C(=O)O`, the IC50 in data set [1] is 0.0126 µM; at Bile salt export pump, 100 µM. The Vd in data set [2] worked out at 0.2 L/kg. The Tlast worked out at 8 h in [3] and 24 h in data set [14]. In data set [4], this molecule had a half-life of 1.81 h. Besides, the fAUClast amounted to 3967 h/ng/mL in data set [5] and 7686 h/ng/mL in data set [13]. Further, the chromatographic logD in [6] was determined as 1.27. In addition, the AUClast in data set [7] was determined as 57300 h/ng/mL; in data set [15], 315000 h/ng/mL. Also, the microsomal CLint at 0.5 µM worked out at 2.3 µL/min/mg in [8] and 3.5 µL/min/mg in [21]. For the same molecule, the Cmax in data set [9] was 89.7 µg/mL; in [17] it was 17.7 µg/mL. In addition, in data set [11], the concentration in solution (solubility) was 641 µM (≈ 325 µg/mL). Further, the fCmax stood at 1225 ng/mL in data set [12] and 2189 ng/mL in [16]. In data set [18], this molecule had a clearance of 0.105 L/h/kg. Further, in data set [22], the Drug uptake entry is “Active”. The molecule further had a bioavailability in [20] of 100%. Also, in the data set with Mus musculus, the ED50 turned out to be 0.1 mg/kg. The same molecule displayed an inhibition at 50 µM against BSEP of 28%.
